# Source: patent US8557864B2, “Agent having neurotrophic factor-like activity” (Nagoya Industrial Science Research Institute, priority 2007, dated 2013)
# Key:
# Assay type in all cases: in vivo
# [1] = test system: mice under chronic mild stress; experiment: Burying the glass-marbles test, compound given at the same time as stress; details: 20, 100 and 500 μg/kg intraperitoneally once per day with stress; stressed 3 week- and 1 week-administration groups
# Method: Mice under established chronic mild stress (hereinafter referred to as “stress”) were used for a depression and anxiety disorder-like model animal. Stress was applied as follows. 7-week-old male ddY strain mice fed in one cage for 4 mice were used and first subjected to forced swimming for 15 minutes. Then, the mice were fed in a sloped cage for 2 days, and then rested in a normal cage for 1 day. Then, the mice were fed in a dirt cage moisturized with 200 mL of water for 1 day and then rested in a normal cage for 1 day. Then, the mice were fed in a rotational cage that rotated at 180 rpm for 1 day, and then rested in a normal cage for 1 day. […] For 0 μg/kg administration examples of controls, a phosphoric acid buffer containing 0.1% DMSO (controls were expressed as “PBS” or “0 μg/kg” in the figure shown below) was administered in an amount of 0.25 mL to each of a stressed example and a non-stressed example. […]
# Tips were bedded so as to have a height of 5 cm in a box with […] and 25 glass marbles (1.6 cm in diameter) were placed thereon at 5 cm-interval and behaviors of mice were observed. […] Since a mouse under stress having an anxiety symptom (condition) takes such a behavior as burying glass marbles, a level of the anxiety symptom can be evaluated from the number of buried glass marbles.
# [2] = Measurement of weights of mice after completion of stress; details: 500 μg/kg for 1 week after completion of stress
# Text: A weight of a mouse before stress was subtracted from of the weight of the mouse immediately after completion of stress for 3 weeks without administering the compound 8 and the weight of the mouse after administering the compound 8 for 1 week after completion of stress, respectively, to obtain weight gaps (g). FIGS. 29 and 30 show the results. Although doses are described in FIG. 29, the compound 8 was not administered as described above, and mice corresponding to each of the administration groups administered with the compound 8 for 1 week after completion of stress are only shown.
# mice = experiment: Voluntary alternation behavior test (Y-maze test) of mice administered with trimethyltin
# Method: The voluntary alternation behavior test (Y-maze test) is one kind of a behavior test using a Y-shaped maze constituted with three arms. First, a mouse is placed on the tip of one arm out of the three arms, letting the mouse freely explore in the maze over 8 minutes, and arms where the mouse transferred are recorded in order. Then, the number of times of transferring to each arm (total arm selection number (total arm entries)) and the number of sequentially selecting three different arms (number of alternation behavior (number of spontaneous behavior)) are counted.
# Trimethyltin (hereinafter referred to as “TMT”) is an organic metal compound having neurotoxicity, and acute nerve cell death is cased particularly in granular nerve cells of the hippocampus dentate gyrus, which thus affects memory and learning abilities of a mouse.
# The voluntary alternation tests (Y-maze tests) were performed on 1) test groups to which the compound 8 was singly administered and 2) test groups to which TMT and the compound 8 were administered. In the test groups to which the compound 8 was singly administered, the compound 8 was dissolved in 0.1% DMSO to adjust a concentration so as to have each of the doses of 100 and 500 μg/kg and intraperitoneally injected to 6 mice in every administration example each in a dose of 0.25 mL. In 0 μg/kg weight administration examples of controls, 0.25 mL of a phosphoric acid buffer containing 0.1% DMSO was intraperitoneally injected in each time. The voluntary alternation tests (Y-maze tests) were performed on each of the administration groups after the elapse of 2 hours from intraperitoneal administration. In the test group in which TMT and the compound 8 were administered, TMT (2 mg/kg weight) was intraperitoneally administered to a mouse, and the compound 8 was intraperitoneally administered in the same manner as the test groups in which the compound 8 was singly administered after 2 days have passed, and the voluntary alternation test (Y-maze test) was performed after the elapse of 2 hours. FIG. 32 show the results. Significance tests were performed in a Turkey's test (*, ##) and a Student's t-test (++). “DAEE” denotes the compound 8.
structure (smiles),measurement,setting,value
"CCCCCCC/C=C/C(=O)OCC [Compound 8, trans-2-decenoic acid ethyl ester]","number of buried glass marbles, stressed vs non-stressed example",[1],no significant difference
same,"weight gap, stressed vs non-stressed example",[2],no significant difference
same,total arm entries (motor function),"mice; 100 and 500 μg/kg intraperitoneally, 2 hours before test, with or without TMT",no difference
same,"voluntary alternation behavior, compound singly administered","mice; 100 and 500 μg/kg intraperitoneally, test after 2 hours",significantly increased
same,voluntary alternation behavior in TMT-treated mice,"mice; TMT 2 mg/kg intraperitoneally, compound 8 after 2 days, test after 2 hours",suppressed decrease
